Common to all, as to assay type: cell-based
One experiment concerns NCI-H23. In words: Anti-proliferation assay (CellTiter-Glo 2.0), combination index, NCI-H23. The method, then: (§1) Cell lines were obtained from ATCC or Health Science Research Resources Bank.
Each cell lines were collected by ordinary method, then suspended in indicated medium containing 10% fetal bovine serum in table 3. The number of cells seeded per well was set to 500 cells/20 μL. […] The concentration of each anti-cancer reagents set to 8 concentrations including 0 nM. After adding the medicine to the cells, the cells were further incubated at 37° C. for 3 days under 5% CO2. Cell survival rates were calculated by adding 20 μL of CellTiter-Glo(registered trademark) 2. 0 (Promega) solution to each well, incubating the cells at room temperature for 10 minutes, and then measuring the chemiluminescence intensity of each well using a plate reader (ARVO).
(§2) A combination index (CI) value at each combined concentration of the medicines was determined.

Another experiment has as its system MV-4-11. Description: Anti-proliferation assay (CellTiter-Glo 2.0), combination index, MV-4-11. The method, then: as §1
(§3) 384 well culture plate (781086, Greiner Bio-One International) was used for cell survival rate measurement assay. Each cell lines were collected by ordinary method, then suspended in indicated medium containing 10% fetal bovine serum in table 3. The number of cells seeded per well was set to 500 cells/20 μL. After incubation at 37° C. for 24 hours under 5% CO2, Compound 1 and additional compound having an antitumor effect or a vehicle (DMSO) was added to each well by using D300e Digital Dispenser (Tecan). The concentration of Compound 1 was set to 10 concentrations. The concentration of each anti-cancer reagents set to 8 concentrations including 0 nM. After adding the medicine to the cells, the cells were further incubated at 37° C. for 3 days under 5% CO2. Cell survival rates were calculated by adding 20 μL of CellTiter-Glo(registered trademark) 2. 0 (Promega) solution to each well, incubating the cells at room temperature for 10 minutes, and then measuring the chemiluminescence intensity of each well using a plate reader (ARVO).
as §2
(Cellular ATP, detected with luciferase, serves as a proxy for viable cell number.)

A further experiment deals with MKN45. In words: Anti-proliferation assay (CellTiter-Glo 2.0), combination index, MKN45. The method in brief: (§4)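 Cells were seeded at 500 cells/well in medium with 10% FBS and exposed to agents at 8 concentrations including 0 nM, for 3 days at 37° C under 5% CO2. Survival was read by CellTiter-Glo 2.0 luminescence, and combination index was determined at each combined concentration.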

The test system of the next experiment is RMG-I. In words: Anti-proliferation assay (CellTiter-Glo 2.0), combination index, RMG-I. The method, then: as §1, §3, §2
The subject of a further experiment is NCI-H358. Description: Anti-proliferation assay (CellTiter-Glo 2.0), combination index, NCI-H358. The method in brief: as §4
A further experiment concerns RT4. In words: Anti-proliferation assay (CellTiter-Glo 2.0), combination index, RT4. The method in brief:
as §4

[1] abbreviates: Compound 1 123 + combination drug 333 nmol/L (1:2.7).
[2] abbreviates: Compound 1 370 + combination drug 1000 nmol/L (1:2.7).
Setting [3] is: Compound 1 4.57 + combination drug 1.37 nmol/L (1:0.3).
The mark [4] stands for this setting: Compound 1 13.7 + combination drug 4.12 nmol/L (1:0.3).
[5] abbreviates: Compound 1 41.2 + combination drug 12.3 nmol/L (1:0.3).
Setting [6] is: Compound 1 123 + combination drug 37.0 nmol/L (1:0.3).
Setting [7] is: Compound 1 370 + combination drug 111 nmol/L (1:0.3).
The mark [8] stands for this setting: Compound 1 41.2 + combination drug 3330 nmol/L (1:81).
[9] abbreviates: Compound 1 123 + combination drug 10000 nmol/L (1:81).
The mark [10] stands for this setting: Compound 1:combination drug molar ratio 1:81.
[11] abbreviates: Compound 1 13.7 + combination drug 123 nmol/L (1:9).
[12] abbreviates: Compound 1 41.2 + combination drug 370 nmol/L (1:9).
Setting [13] is: Compound 1 123 + combination drug 1110 nmol/L (1:9).
Setting [14] is: Compound 1 4.57 + combination drug 123 nmol/L (1:27).
[15] abbreviates: Compound 1 13.7 + combination drug 370 nmol/L (1:27).
Where [16] appears, read: Compound 1 41.2 + combination drug 1110 nmol/L (1:27).
Setting [17] is: Compound 1 370 + combination drug 10000 nmol/L (1:27).
[18] abbreviates: Compound 1 13.7 + combination drug 41.2 nmol/L (1:3).
The mark [19] stands for this setting: Compound 1 41.2 + combination drug 123 nmol/L (1:3).
[20] abbreviates: Compound 1 123 + combination drug 370 nmol/L (1:3).
[21] abbreviates: Compound 1 370 + combination drug 1110 nmol/L (1:3).
The mark [22] stands for this setting: Compound 1 1110 + combination drug 3330 nmol/L (1:3).
The mark [23] stands for this setting: Compound 1:combination drug molar ratio 1:3.
The mark [24] stands for this setting: Compound 1 3330 + combination drug 10000 nmol/L (1:3).
The mark [25] stands for this setting: Compound 1 41.2 + combination drug 41.2 nmol/L (1:1).
Setting [26] is: Compound 1 123 + combination drug 123 nmol/L (1:1).
The mark [27] stands for this setting: Compound 1 370 + combination drug 370 nmol/L (1:1).
[28] abbreviates: Compound 1 1110 + combination drug 1110 nmol/L (1:1).
Where [29] appears, read: Compound 1 3330 + combination drug 3330 nmol/L (1:1).

In the case of `CCc1nc(C(N)=O)c(Nc2ccc(N3CCC(N4CCN(C)CC4)CC3)c(OC)c2)nc1NC1CCOCC1` [Gilteritinib], the CI with NCI-H23 (setting [1]) turned out to be 0.540; in the experiment with NCI-H23 (setting [2]) it was 0.666; in the experiment with MV-4-11 (setting [3]), 0.817; in the experiment with MV-4-11 (setting [4]), 0.235; in the experiment with MV-4-11 (setting [5]), 0.189; with MV-4-11 (setting [6]), 0.354. For the same compound, in the experiment with MV-4-11 (setting [7]), the CI is 0.862. In addition, the Fa is 0.3005 in the experiment on NCI-H23 (setting [1]); 0.6542 in the experiment on NCI-H23 (setting [2]); 0.5753 with MV-4-11 (setting [3]); 0.8986 in the experiment with MV-4-11 (setting [4]); 0.9647 with MV-4-11 (setting [5]); 0.9763 in the experiment with MV-4-11 (setting [6]). The Fa with MV-4-11 (setting [7]) is 0.9802. Moreover, in the experiment on NCI-H23 (Compound 1:combination drug molar ratio 1:2.7), the “Description (combinatory effect by CI)” value is on record as “Synergy (0.3-0.7)”.

Turning to `COC(=O)c1ccc2c(c1)NC(=O)/C2=C(\Nc1ccc(N(C)C(=O)CN2CCN(C)CC2)cc1)c1ccccc1` [Nintedanib], the CI in the experiment on MKN45 (setting [8]) is 0.925; in the experiment with MKN45 (setting [9]), 0.418; in the experiment on RMG-I (setting [11]) it was 0.772; with RMG-I (setting [12]) it was 0.477; with RMG-I (setting [13]), 0.683; in the experiment on NCI-H358 (setting [14]), 0.837. For the same compound, the CI in the experiment with NCI-H358 (setting [15]) came out at 0.576; in the experiment with NCI-H358 (setting [16]), 0.580; in the experiment with NCI-H358 (setting [17]) it was 0.858; with MV-4-11 (setting [18]), 0.479; in the experiment with MV-4-11 (setting [19]), 0.370; in the experiment with MV-4-11 (setting [20]) it was 0.706. Also, the CI in the experiment with MV-4-11 (setting [21]) was 0.617; in the experiment on MV-4-11 (setting [22]), 0.770. Also, the Fa in the experiment with MKN45 (setting [8]) is 0.5044; in the experiment with MKN45 (setting [9]), 0.8817; with RMG-I (setting [11]), 0.2678; in the experiment on RMG-I (setting [12]), 0.4576; in the experiment with RMG-I (setting [13]), 0.6821; in the experiment with NCI-H358 (setting [14]) it was 0.0649. In addition, the Fa in the experiment with NCI-H358 (setting [15]) was determined as 0.1639; with NCI-H358 (setting [16]), 0.3485; in the experiment on NCI-H358 (setting [17]), 0.9756; in the experiment on MV-4-11 (setting [18]) it was 0.7111; in the experiment on MV-4-11 (setting [19]), 0.9278; in the experiment on MV-4-11 (setting [20]), 0.9603. Besides, the figures for the Fa with MV-4-11 (setting [21]) and in the experiment on MV-4-11 (setting [22]) were 0.9933 and 0.9982, respectively. For the same compound, the “Description (combinatory effect by CI)” value with MKN45 (setting [10]), with RMG-I (Compound 1:combination drug molar ratio 1:9), with NCI-H358 (Compound 1:combination drug molar ratio 1:27) and in the experiment with MV-4-11 (setting [23]) was “Synergy (0.3-0.7)” each time.

Turning to `CN(C)C/C=C/C(=O)Nc1cc2c(Nc3ccc(F)c(Cl)c3)ncnc2cc1O[C@H]1CCOC1` [Afatinib], the CI in the experiment on NCI-H23 (setting [20]) is 0.776; in the experiment with NCI-H23 (setting [21]) it was 0.397; in the experiment with NCI-H23 (setting [22]) it was 0.400; with NCI-H23 (setting [24]), 0.471; in the experiment with NCI-H358 (setting [25]) it was 0.143; with NCI-H358 (setting [26]) it was 0.264. For the same compound, the CI amounted to 0.426 with NCI-H358 (setting [27]), 0.686 in the experiment on NCI-H358 (setting [28]), 0.526 in the experiment with NCI-H358 (setting [29]) and 0.471 in the experiment with RT4 (setting [9]). Also, the Fa in the experiment with NCI-H23 (setting [20]) was determined as 0.1325; in the experiment with NCI-H23 (setting [21]) it was 0.3961; in the experiment on NCI-H23 (setting [22]), 0.8058; in the experiment with NCI-H23 (setting [24]), 0.9563; in the experiment with NCI-H358 (setting [25]), 0.4605; with NCI-H358 (setting [26]), 0.5395. Also, the Fa in the experiment on NCI-H358 (setting [27]) is 0.6382; in the experiment with NCI-H358 (setting [28]), 0.7270; with NCI-H358 (setting [29]), 0.8696; with MV-4-11 (setting [15]), 0.6791; in the experiment on MV-4-11 (setting [16]), 0.9244; in the experiment with RT4 (setting [9]), 0.9986. Besides, the “Description (combinatory effect by CI)” value in the experiment on NCI-H23 (setting [23]) and in the experiment on RT4 (setting [10]) was “Synergy (0.3-0.7)” throughout.

`C[C@@H](Oc1cc(-c2cnn(C3CCNCC3)c2)cnc1N)c1c(Cl)ccc(F)c1Cl` [Crizotinib]: in the experiment on NCI-H23 (setting [22]), the CI is 0.939 and the Fa was 0.5445. Moreover, in the experiment on NCI-H23 (setting [24]), the CI is reported as 0.765 and the Fa was determined as 0.8672.

The values are drawn from US20230146795A1, “ENHANCEMENT OF ANTI-TUMOR ACTIVITY OF SHP2 INHIBITOR PYRIMIDINONE IN COMBINATION WITH NOVEL CANCER MEDICINES IN CANCERS” (TAIHO PHARMACEUTICAL CO., LTD., priority 2020, published 2023).
